Measured values published in PubChem BioAssay AID1054 (Sanford-Burnham Center for Chemical Genomics, 2008).
“And” between values parts separate entries of the source, which are not always exact repeats. Equal values may be shown once. The source made the active and inactive calls. No rule for the calls is given here.

molecular target: Dual specificity protein phosphatase 6 (Rattus norvegicus) (UniProt Q64346); test: redox-state modulators of MKP-3 activity, biochemical, rat enzyme, secondary assay (AID 1054); settings: recombinant MKP-3 phosphatase activity
Sequence (Q64346 whole entry, looked up): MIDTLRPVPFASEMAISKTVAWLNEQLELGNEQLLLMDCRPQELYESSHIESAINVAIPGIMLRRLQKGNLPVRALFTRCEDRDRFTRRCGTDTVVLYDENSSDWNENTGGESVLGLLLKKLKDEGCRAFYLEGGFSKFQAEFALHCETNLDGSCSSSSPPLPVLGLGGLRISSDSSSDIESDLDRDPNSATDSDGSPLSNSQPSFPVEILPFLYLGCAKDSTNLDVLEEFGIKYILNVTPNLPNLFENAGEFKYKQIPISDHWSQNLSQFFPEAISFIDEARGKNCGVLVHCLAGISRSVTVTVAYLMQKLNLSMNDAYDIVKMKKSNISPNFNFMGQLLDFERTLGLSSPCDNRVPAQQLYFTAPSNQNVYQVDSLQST

| Structure (SMILES) | IC50 |
| --- | --- |
| O=C(O)C1Nc2c(I)cccc2C2C=CCC12 (stereo not given) | > 100 µM (inactive) |
| O=C(O)C(O)c1ccccc1 (stereo not given) | > 100 µM (inactive) |
| NC(=O)c1cccc2c1NC(C(=O)O)C1CC=CC21 (stereo not given) | 55.5 µM |
| CCOC(=O)C1=C(C)N=c2sc(=Cc3ccc(OCC(=O)O)cc3)c(=O)n2C1c1ccc(Cl)cc1 (stereo not given) | 16.8 µM |
| Cc1cc(NC(=O)Cc2cccs2)no1 | 13.1 µM |
| O=C(O)C1Nc2c(F)cccc2C2C=CCC12 (stereo not given) | 17.2 µM |
| O=C(Oc1ccc2ccccc2c1)c1ccc2c(c1)C1C=CCC1C(C(=O)O)N2 (stereo not given) | 24.7 µM |
| O=c1/c(=C/c2ccco2)sc2nc3cc(Br)cnc3n12 | 4.56 µM |
| O=C(O)C1Nc2ccccc2C2C=CCC12 (stereo not given) | 25.2 µM |
| CC(=O)Nc1ccc2c(c1)C1C=CCC1C(C(=O)O)N2 (stereo not given) | > 100 µM (inactive) |
| CCOC(=O)C1=C(C)N=c2sc(=Cc3ccc(OCC(=O)O)cc3)c(=O)n2C1c1ccc(SC)cc1 (stereo not given) | 9.08 µM |
| CCOC(=O)c1ccccc1OC(=O)c1ccc2c(c1)C1C=CCC1C(C(=O)O)N2 (stereo not given) | 6.01 µM |
| CCCCCCCCCCCCCCCCCCC=CCCCCCC(=O)O | > 100 µM (inactive) |
| Cn1c(=O)n(CC(N)=O)c(=O)n(-c2ccccc2)c1=O | > 100 µM (inactive) |
| COc1cc(C(=S)NCc2ccc(Cl)c(C)c2)ccc1O | 10.5 µM |
| CCn1c(=O)n(C)c(=O)n([C@@H](Cc2ccccc2)C(N)=O)c1=O | > 100 µM (inactive) |
| COc1cc(C(=S)N2CCCCC2)ccc1O | 13.5 µM and 10.7 µM |
| CCOC(=O)C1Nc2c(OC)cccc2C2OCCCC12 (stereo not given) | > 100 µM (inactive) |
| O=C(O)C1Nc2cc(C(F)(F)F)ccc2S(=O)(=O)N1 (stereo not given) | > 100 µM (inactive) |
| O=C(O)C1Nc2c(cccc2C(F)(F)F)C2C=CCC12 (stereo not given) | 7.72 µM |
| NC(=O)[C@H](Cc1ccccc1)n1c(=O)n(Cc2ccc(Br)cc2)c(=O)n(-c2ccccc2)c1=O | > 100 µM (inactive) |
| Cc1ccccc1Cn1c(=O)n(-c2ccccc2)c(=O)n([C@@H](C)C(N)=O)c1=O | > 100 µM (inactive) |

| Structure (SMILES) | IC50 |
| --- | --- |
| COc1cc(C(=S)NCc2ccccc2)ccc1O | 4.46 µM |
| Cc1ccc(C)c2c1NC(C(=O)O)C1CC=CC21 (stereo not given) | > 100 µM (inactive) |
| CSc1nnc(-c2ccco2)c(-c2ccco2)n1 | 99.7 µM |
| CCC(CC)c1nnc(NC(=O)Cc2cccs2)s1 | > 100 µM (inactive) |
| COC(=O)c1ccccc1OC(=O)c1ccc2c(c1)C1C=CCC1C(C(=O)O)N2 (stereo not given) | 17.2 µM |
| Cn1c(SCC(=O)O)nc2sc3c(c2c1=O)CCC3 | > 100 µM (inactive) |
| Cc1ccc2c(c1)C1C=CCC1C(C(=O)O)N2 (stereo not given) | 7.92 µM |
| O=c1/c(=C/c2cccc(Br)c2)sc2nc3cc(Br)cnc3n12 | > 100 µM (inactive) |
| O=c1nc(NCCc2ccccc2)[nH]c(=O)n1-c1ccccc1 | > 100 µM (inactive) |
| CC(C)[C@@H](C(N)=O)n1c(=O)[nH]c(=O)n(-c2ccc(Cl)cc2)c1=O | > 100 µM (inactive) |
| Cc1ccc2c(c1)NC(C(=O)O)NS2(=O)=O (stereo not given) | 56.9 µM |
| CCCn1c(=O)nc(NCc2ccc(C)cc2)[nH]c1=O | > 100 µM (inactive) |
| CCCCCC#CCC#CCC#CCC#CCCCC(=O)O | 30.4 µM |
| Cc1ccc2c(c1C)NC(C(=O)O)C1CC=CC21 (stereo not given) | 5.96 µM |
| Cc1cc(I)cc2c1NC(C(=O)O)C1CC=CC21 (stereo not given) | > 100 µM (inactive) |
| C[C@@H](C(N)=O)n1c(=O)n(Cc2ccccc2)c(=O)n(-c2ccccc2)c1=O | > 100 µM (inactive) |
| O=C(O)C1Nc2c(O)cccc2C2C=CCC12 (stereo not given) | 10.5 µM and 14.6 µM |
| CCOC(=O)C1Nc2c(O)ccc(C)c2C2C=CCC12 (stereo not given) | > 100 µM (inactive) |
| Cn1c(=O)n(-c2ccccc2)c(=O)n([C@@H](Cc2ccccc2)C(N)=O)c1=O | > 100 µM (inactive) |
| C#CCCCCCCCCCCCCCCCCCC | > 100 µM (inactive) |
| COc1cc(C(=S)NC(C)(C)C)ccc1O | > 100 µM (inactive) |
| O=C(Oc1ccc2c(c1)C1C=CCC1C(C(=O)O)N2)c1ccc(Cl)cc1Cl (stereo not given) | 15.6 µM |

| Structure (SMILES) | IC50 |
| --- | --- |
| Cc1cc(C)c2c(c1)C1C=CCC1C(C(=O)O)N2 (stereo not given) | > 100 µM (inactive) |
| CCOC(=O)C1Nc2c(O)cccc2C2C=CCC12 (stereo not given) | > 100 µM (inactive) |
| CCn1c(=O)n(CC)c(=O)n([C@@H](Cc2ccccc2)C(=O)O)c1=O | > 100 µM (inactive) |
| CCCCOC(=O)c1ccc2c(c1)C1C=CCC1C(C(=O)O)N2 (stereo not given) | 4.02 µM |
| Cc1cc2nc3s/c(=C/c4ccc(-c5ccccc5C(=O)O)o4)c(=O)n3c2cc1C | 14.8 µM |
| COc1cc(C(=S)N2CCCC2)ccc1O | > 100 µM (inactive) |
| O=C(O)c1ccccc1-c1ccc(/C=c2\sc3nc4cc(Br)cnc4n3c2=O)o1 | 3.11 µM |
| CCOC(=O)C1=C(c2ccccc2)N=c2sc(=Cc3cc(OC)c(OC)c(OC)c3)c(=O)n2C1c1cccs1 (stereo not given) | > 50 µM (inactive) |
| CC(C)CNc1nc(=O)n(-c2ccc(F)cc2)c(=O)[nH]1 | > 100 µM (inactive) |
| O=c1/c(=C/c2ccccc2Cl)sc2nc3cc(Br)cnc3n12 | 2.5 µM |
| Cc1ccc(CC(=O)Nc2cc(C)on2)cc1 | > 100 µM (inactive) |
| CCOC(=O)C1=C(C)N=c2s/c(=C/c3cc(Cl)c(OCC(=O)O)c(OC)c3)c(=O)n2C1c1ccccc1Cl (stereo not given) | 9.75 µM |
| O=C(O)C1Nc2cc(Cl)cc(Cl)c2C2C=CCC12 (stereo not given) | > 100 µM (inactive) |
| CCn1c(=O)n(Cc2ccccc2C)c(=O)n([C@@H](Cc2ccccc2)C(=O)O)c1=O | > 100 µM (inactive) |
| O=C(O)c1ccc(N2C(=O)c3ccccc3C2=O)cc1 | > 100 µM (inactive) |
| Cc1ccccc1Cn1c(=O)n(-c2ccccc2)c(=O)n([C@H](C(=O)O)C(C)C)c1=O | > 100 µM (inactive) |
| O=C(O)C1Nc2c(Cl)cc(Cl)c(Cl)c2C2C=CCC12 (stereo not given) | 12 µM |
| Cc1ccc2c(c1Cl)NC(C(=O)O)C1CC(Sc3ccccc3[N+](=O)[O-])C(Cl)C21 (stereo not given) | 42.6 µM |
| CCCCCCCCCCCCCCCCCCC#CCCCCCCCCCCC(=O)O | > 100 µM (inactive) |
| Cc1cc(O)c2c(c1)C1C=CCC1C(C(=O)O)N2 (stereo not given) | > 100 µM (inactive) |
| COc1cc(C(=S)NCc2ccc(F)c(C(F)(F)F)c2)ccc1O | 1.5 µM |
| O=C(O)[C@@H](O)c1ccccc1 | > 100 µM (inactive) |

| Structure (SMILES) | IC50 |
| --- | --- |
| O=C(O)c1ccc2c(c1)C1C=CCC1C(C(=O)O)N2 (stereo not given) | 15.5 µM |
| COc1ccc2c(c1)C1C=CCC1C(C(=O)O)N2 (stereo not given) | 32 µM |
| COCCCNc1nc(=O)n(-c2ccc(F)cc2)c(=O)[nH]1 | > 100 µM (inactive) |
| Cc1ccc2c(nc3s/c(=C\c4ccc(-c5ccccc5C(=O)O)o4)c(=O)n32)c1C | 21.6 µM |
| CCCCCCCCC#CC#CCCCC(=O)O | > 100 µM (inactive) |
| Cc1ccc(O)c2c1C1C=CCC1C(C(=O)O)N2 (stereo not given) | 86.4 µM |
| CCOC(=O)C1Nc2c(OC)cccc2C2OCCC12 (stereo not given) | > 100 µM (inactive) |
| Cc1cc(C)c2c(c1)NC(C(=O)O)C1CC=CC21 (stereo not given) | 46.1 µM |
| CCOC(=O)C1Nc2c(O)cc(C)cc2C2C=CCC12 (stereo not given) | > 100 µM (inactive) |
| Cc1cc(C)c2nc3s/c(=C\c4ccc(-c5ccccc5C(=O)O)o4)c(=O)n3c2c1 | 11.7 µM |
| COc1cc(C(=S)NC2CCCC2)ccc1O | 3.77 µM |
| CCCCCc1nnc(NC(=O)Cc2cccs2)s1 | 17.2 µM |
| O=c1/c(=C/c2ccc(-c3ccccc3[N+](=O)[O-])o2)sc2nc3cc(Br)cnc3n12 | 29.8 µM |
| Cc1cc2ccccn2c1C(=O)C(=O)O | > 100 µM (inactive) |
| O=C1c2ccccc2CC1Sc1nnc(-c2ccco2)c(-c2ccco2)n1 (stereo not given) | 42 µM |
| CC1=C(C(=O)OC(C)C)C(c2ccc(Cl)cc2)n2c(sc(=Cc3ccc(OCC(=O)O)cc3)c2=O)=N1 (stereo not given) | 10.1 µM |
| CCn1c(=O)n(Cc2ccc(N(O)O)cc2)c(=O)n([C@@H](Cc2ccccc2)C(=O)O)c1=O | > 100 µM (inactive) |
| c1ccc(CSc2nnc(-c3ccco3)c(-c3ccco3)n2)cc1 | 24.2 µM |
| CCCn1c(=O)nc(NCc2ccccc2OC)[nH]c1=O | > 100 µM (inactive) |
| COc1ccc(-n2c(=O)nc(NCCc3cccc(Cl)c3)[nH]c2=O)cc1 | > 100 µM (inactive) |
| COc1cc(C(=S)NCc2ccc(C)cc2C)ccc1O | 2.12 µM |
| O=C(O)C1Nc2c(O)cc(Cl)c([N+](=O)[O-])c2C2C=CCC12 (stereo not given) | 35.4 µM |

| Structure (SMILES) | IC50 |
| --- | --- |
| CCn1c(SCC(=O)O)nc2sc3c(c2c1=O)CCCC3 | > 100 µM (inactive) |
| COc1cc(C(=S)N2CCC(C)CC2)ccc1O | 32.8 µM |
| O=C(O)C1Nc2ccc(Br)cc2C2C=CCC12 (stereo not given) | 12.3 µM |
| Clc1ccccc1CSc1nnc(-c2ccco2)c(-c2ccco2)n1 | 24.2 µM |
| O=C1CC(=O)N(Cc2ccco2)C(=O)N1 | > 100 µM (inactive) |
| O=C(Cc1cccs1)Nc1ccon1 | > 100 µM (inactive) |
| O=S(=O)(O)c1ccc2cc(N=Nc3cc(S(=O)(=O)O)c4cccnc4c3O)ccc2c1 | 4.19 µM |
| Cc1cc([N+](=O)[O-])cc2c1NC(C(=O)O)C1CC=CC21 (stereo not given) | > 100 µM (inactive) |
| O=C(O)C1Nc2c(Cl)cc(Cl)cc2C2C=CCC12 (stereo not given) | 53 µM |
| CCOc1cc2c(c([N+](=O)[O-])c1)NC(C(=O)O)C1CC=CC21 (stereo not given) | > 100 µM (inactive) |
| NS(=O)(=O)c1ccc2c(c1)C1C=CCC1C(C(=O)O)N2 (stereo not given) | > 100 µM (inactive) |
| CCCn1c(=O)nc(NCCc2ccccc2)[nH]c1=O | > 100 µM (inactive) |
| Cc1ccc(C)n1C(Cc1ccccc1)C(=O)O (stereo not given) | > 100 µM (inactive) |
| Cn1c(=O)n(-c2ccc(Cl)cc2)c(=O)n([C@@H](Cc2ccccc2)C(N)=O)c1=O | > 100 µM (inactive) |
| O=C(O)C1Nc2ccc([N+](=O)[O-])cc2C2C=CCC12 (stereo not given) | 47.5 µM |
| CCCCCCCCCCCCCCCCCCC#CCCCCCCCC(=O)O | > 100 µM (inactive) |
| COc1cc(C(=S)NCc2ccc(O)cc2)ccc1O | 16.1 µM |
| O=c1/c(=C/c2ccc(-c3cc(Cl)cc(Cl)c3)o2)sc2nc3cc(Br)cnc3n12 | 14.8 µM |
| NC(=O)[C@H](Cc1ccccc1)n1c(=O)[nH]c(=O)n(-c2ccc(Cl)cc2)c1=O | > 100 µM (inactive) |
| CCOC(=O)C1=C(C)N=c2s/c(=C\c3cc(Cl)c(OCC(=O)O)c(Cl)c3)c(=O)n2C1c1cccc(OC)c1 (stereo not given) | 9.64 µM |
| Cc1ccc(-n2c(=O)[nH]c(=O)n([C@H](C(N)=O)C(C)C)c2=O)cc1 | > 100 µM (inactive) |
| COCCCNc1nc(=O)n(-c2ccc(C)cc2)c(=O)[nH]1 | > 100 µM (inactive) |
